Test results from patent US20080234243A1, “METHOD OF TREATING AMYLOIDOSIS MEDIATED DISEASES” (priority 2007, published 2008).

System: soluble Aβ (1-40) peptide
Test: In vivo effect on soluble Aβ (1-40) in whole brain homogenates of CB.17 SCID mice (ELISA)
Details: CB17 SCID mice, oral, 300 mg/kg/day for 20 days, brain extracts; P=0.012 vs. control
Procedure: FIG. 1 provides a graph showing a decrease in soluble AD levels in CB17 SCID mice treated with 2ME2. Mice (5 animals per group) were treated orally for 5 or 20 days with 300 mg/kg/day 2ME2, and soluble Aβ levels were measure in whole brain homogenates. (*P=0.012 vs. control)
CB. 17 SCID mice were treated orally for 5 or 20 days with 300 mg/kg/day 2ME2. At the end of treatment mice were humanely euthanized, and mouse brain was recovered surgically. This tissue was immediately frozen on dry ice until processing for ELISA analysis of soluble Aβ peptide. Serum is also routinely collected for later analysis as well.
Preparation of the Brain Extract Solution
1. Homogenize brains into 15 vol of ice cold TBS, pH 7.4 containing leupeptide (10 ug/ml) and aprotinin (20 ug/ml).
2. Transfer to microcentrifuge tubes and spin 20,000 g for 20 min at 4° C.
3. Remove supernatant (TBS Extract) to ice.
4. Wash once with cold TBS and resuspend in 15 vol of TBS/1% Triton X-100 and protease inhibitors. Incubate 30 min at 4° C. with agitation.
5. Transfer to microcentrifuge tubes and spin 20,000 g for 20 min at 4° C.
6. Remove supernatant (Triton Extract) to ice. […]
Harvested brains were homogenized with a tissue homogenizer, and subjected to serial extraction with TBS followed by TBS/Triton X-100. […] Brains were harvested, and soluble Aβ was assessed. […]

## COc1cc2c(cc1O)CC[C@@H]1[C@@H]2CC[C@]2(C)[C@@H](O)CC[C@@H]12 [2ME2, 2-methoxyestradiol]
  decrease in the levels of soluble Aβ (inhibition): 46%
